These compounds were tested against T1, IL-17A/A (Homo sapiens, UniProt Q16552) (assay: IL-17A/A HEK-Blue cell assay). Conditions: HEK-Blue IL-17A reporter cell line (HEK 293), IL-17A/A stimulation, 20 hours incubation, SEAP read at A630.
T1 construct: purchased Genscript Z03228
T1 sequence (Q16552 24-155): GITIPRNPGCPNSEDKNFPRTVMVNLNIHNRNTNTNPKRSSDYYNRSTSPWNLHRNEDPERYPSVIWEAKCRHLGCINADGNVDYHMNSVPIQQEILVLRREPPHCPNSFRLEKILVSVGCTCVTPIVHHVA
Assay type: cell-based
Outline: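 HEK293 reporter cells expressing IL-17RA, IL-17RC and Act1 were given titrated compound (top final 10, 1 or 0.3 uM; 0.1% DMSO) right before IL-17A/A and incubated 20 hours. NFκB-driven SEAP in the media was read at A630 with Quanti-Blue, and IC50 came from a 4-parameter nonlinear fit.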

| IC50 [nM] | Structure (SMILES) |
| --- | --- |
| > 1000 | CCn1nccc1C(=O)N[C@H](c1cn2nc(CC3C[C@@H](C(F)(F)F)CNC3=O)ccc2n1)[C@@H]1C[C@H]2C[C@H]2C1 (stereo partly drawn) [Compound 170, N-((1S)-((1R,3S,5S)-bicyclo[3.1.0]hexan-3-yl)(6-(((5R)-2-oxo-5-(trifluoromethyl)piperidin-3-yl)methyl)imidazo[1,2-b]pyridazin-2-yl)methyl)-1-ethyl-1H-pyrazole-5-carboxamide] |
| < 100 | O=C(N[C@H](c1cn2ncc(CC3C[C@@H](C(F)(F)F)NC3=O)cc2n1)C1CCC(F)(F)CC1)c1conc1C1CC1 (single isomer, unassigned) [Compound 219] |
| < 100 | O=C(N[C@H](c1cn2nc(CC3C[C@@H](C(F)(F)F)CNC3=O)ccc2n1)C1CCC(F)(F)CC1)c1conc1C1CC1(F)F (single isomer, unassigned) [Compound 127] |
| 100 to 1000 | CC[C@@H](c1ccc(F)cc1)[C@H](NC(=O)c1ccnn1CC)c1cn2nc(C[C@H]3C[C@@H](C(F)(F)F)NC3=O)ccc2n1 [Compound 22, 1-ethyl-N-((1S,2S)-2-(4-fluorophenyl)-1-(6-(((3R,5S)-2-oxo-5-(trifluoromethyl)pyrrolidin-3-yl)methyl)imidazo[1,2-b]pyridazin-2-yl)butyl)-1H-pyrazole-5-carboxamide] |
| > 1000 | CCn1nccc1C(=O)N[C@H](c1cn2nc(CC3CCCNC3=O)ccc2n1)C1CCCCCC1 (single isomer, unassigned) [Compound 11] |
| > 1000 | Cc1n[nH]cc1C(=O)N[C@H](c1cn2nc(CC3C[C@@H](C(F)(F)F)CNC3=O)ccc2n1)C1CCC(F)(F)CC1 (stereo partly drawn) [Compound 135, N-((1S)-(4,4-difluorocyclohexyl)(6-(((5R)-2-oxo-5-(trifluoromethyl)piperidin-3-yl)methyl)imidazo[1,2-b]pyridazin-2-yl)methyl)-3-methyl-1H-pyrazole-4-carboxamide] |
| < 100 | CCn1nccc1C(=O)N[C@H](c1cn2nc(CC3C[C@@H](C(F)(F)F)CNC3=O)c(N(C)C3CCOCC3)cc2n1)C1CCC(F)(F)CC1 (single isomer, unassigned) [Compound 94] |
| 100 to 1000 | CCn1nccc1C(=O)N[C@H](c1cn2nc(CC3C[C@@H](C(F)(F)F)CNC3=O)ccc2n1)C1CCC(F)(F)CC1 (stereo partly drawn) [Compound 95, N-((1S)-(4,4-difluorocyclohexyl)(6-(((5R)-2-oxo-5-(trifluoromethyl)piperidin-3-yl)methyl)imidazo[1,2-b]pyridazin-2-yl)methyl)-1-ethyl-1H-pyrazole-5-carboxamide] |
| 100 to 1000 | CCn1nccc1C(=O)N[C@H](c1cn2nc(CC3C(=O)NC4CC3C4)ccc2n1)[C@H]1CC[C@H](C)CC1 (stereo partly drawn) [Compound 61, 1-ethyl-N-((1S)-((1r,4S)-4-methylcyclohexyl)(6-((3-oxo-2-azabicyclo[3.1.1]heptan-4-yl)methyl)imidazo[1,2-b]pyridazin-2-yl)methyl)-1H-pyrazole-5-carboxamide] |
| 100 to 1000 | CCn1nccc1C(=O)N[C@H](c1cn2nc(CC3C[C@@H](C(F)(F)F)CNC3=O)ccc2n1)C1CCCCC1 (stereo partly drawn) [Compound 191, N-((1S)-cyclohexyl(6-(((5R)-2-oxo-5-(trifluoromethyl)piperidin-3-yl)methyl)imidazo[1,2-b]pyridazin-2-yl)methyl)-1-ethyl-1H-pyrazole-5-carboxamide] |
| < 100 | CC(C)c1nonc1C(=O)N[C@H](c1cn2nc(CC3C[C@@H](C(F)(F)F)CNC3=O)ccc2n1)[C@@H]1CCCC(F)(F)C1 (stereo partly drawn) [Compound 151, N-((1S)—((R)-3,3-difluorocyclohexyl)(6-(((5R)-2-oxo-5-(trifluoromethyl)piperidin-3-yl)methyl)imidazo[1,2-b]pyridazin-2-yl)methyl)-4-isopropyl-1,2,5-oxadiazole-3-carboxamide] |
| < 100 | CC(C)c1nonc1C(=O)N[C@H](c1cn2nc(CC3C[C@@H](C(F)(F)F)CNC3=O)ccc2n1)[C@H]1CCCC(F)(F)C1 (stereo partly drawn) [Compound 150, N-((1S)—((S)-3,3-difluorocyclohexyl)(6-(((5R)-2-oxo-5-(trifluoromethyl)piperidin-3-yl)methyl)imidazo[1,2-b]pyridazin-2-yl)methyl)-4-isopropyl-1,2,5-oxadiazole-3-carboxamide] |
| 100 to 1000 | CCn1nccc1C(=O)N[C@H](c1cn2nc(CC3C[C@@H](C(F)(F)F)NC3=O)ccc2n1)[C@H]1CC[C@H](C)CC1 (single isomer, unassigned) [Compound 16] |
| 100 to 1000 | CCn1nccc1C(=O)N[C@H](c1cn2nc(CC3CC(F)(F)CNC3=O)c(NC)cc2n1)C1CCC(F)(F)CC1 (single isomer, unassigned) [Compound 73] |
| 100 to 1000 | CCn1nncc1C(=O)N[C@H](c1cn2nc(CC3C[C@@H](C(F)(F)F)CNC3=O)ccc2n1)C1CCC(F)(F)CC1 (stereo partly drawn) [Compound 108, N-((1S)-(4,4-difluorocyclohexyl)(6-(((5R)-2-oxo-5-(trifluoromethyl)piperidin-3-yl)methyl)imidazo[1,2-b]pyridazin-2-yl)methyl)-1-ethyl-1H-1,2,3-triazole-5-carboxamide] |
| 100 to 1000 | CCn1nccc1C(=O)N[C@H](c1cn2nc(CC3C(=O)NCCC3C)ccc2n1)[C@H]1CC[C@H](C)CC1 (single isomer, unassigned) [Compound 53] |
| 100 to 1000 | O=C(N[C@H](c1cn2nc(CC3C[C@@H](C(F)(F)F)CNC3=O)ccc2n1)C1CCC(F)(F)CC1)c1conc1C(F)(F)F (stereo partly drawn) [Compound 114, N-((1S)-(4,4-difluorocyclohexyl)(6-(((5R)-2-oxo-5-(trifluoromethyl)piperidin-3-yl)methyl)imidazo[1,2-b]pyridazin-2-yl)methyl)-3-(trifluoromethyl)isoxazole-4-carboxamide] |
| 100 to 1000 | O=C(N[C@H](c1cn2nc(CC3C[C@@H](C(F)(F)F)CNC3=O)ccc2n1)C1CCC(F)(F)CC1)c1conc1CCF (stereo partly drawn) [Compound 110, N-((1S)-(4,4-difluorocyclohexyl)(6-(((5R)-2-oxo-5-(trifluoromethyl)piperidin-3-yl)methyl)imidazo[1,2-b]pyridazin-2-yl)methyl)-3-(2-fluoroethyl)isoxazole-4-carboxamide] |
| < 100 | CCn1nccc1C(=O)N[C@H](c1cn2nc(CC3C[C@@H](C(F)(F)F)CNC3=O)ccc2n1)[C@H]1CCCC(F)(F)C1 (stereo partly drawn) [Compound 142, N-((1S)—((S)-3,3-difluorocyclohexyl)(6-(((5R)-2-oxo-5-(trifluoromethyl)piperidin-3-yl)methyl)imidazo[1,2-b]pyridazin-2-yl)methyl)-1-ethyl-1H-pyrazole-5-carboxamide] |
| > 1000 | CCn1nccc1C(=O)N[C@H](c1cn2nc(CC3C[C@H](C(F)(F)F)NC3=O)ccc2n1)C1CCC(F)(F)CC1 (single isomer, unassigned) [Compound 23] |
| < 100 | CCn1nccc1C(=O)N[C@H](c1cn2nc(CC3C[C@@H](C(F)(F)F)CNC3=O)c(C(C)C)cc2n1)C1CCC(F)(F)CC1 (stereo partly drawn) [Compound 180, N-((1S)-(4,4-difluorocyclohexyl)(7-isopropyl-6-(((5R)-2-oxo-5-(trifluoromethyl)piperidin-3-yl)methyl)imidazo[1,2-b]pyridazin-2-yl)methyl)-1-ethyl-1H-pyrazole-5-carboxamide] |
| > 1000 | CCn1nccc1C(=O)N[C@H](c1cn2nc(CC3CC(F)(F)CNC3=O)ccc2n1)C(C1CC1)C1CC1 (single isomer, unassigned) [Compound 29] |
| > 1000 | Cc1nonc1C(=O)N[C@H](c1cn2nc(CC3CCCNC3=O)ccc2n1)C1CCCCCC1 (stereo partly drawn) [Compound 2, N-((1S)-cycloheptyl(6-((2-oxopiperidin-3-yl)methyl)imidazo[1,2-b]pyridazin-2-yl)methyl)-4-methyl-1,2,5-oxadiazole-3-carboxamide] |
| 100 to 1000 | Cc1nonc1C(=O)N[C@H](c1cn2nc(CC3C[C@@H](C(F)(F)F)CNC3=O)ccc2n1)[C@H]1CC[C@H](C)CC1 (stereo partly drawn) [Compound 165, 4-Methyl-N-((1S)-((1R.4S)-4-methylcyclohexyl)(6-(((5R)-2-oxo-5-(trifluoromethyl)piperidin-3-yl)methyl)imidazo[1,2-b]pyridazin-2-yl)methyl)-1,2,5-oxadiazole-3-carboxamide] |
| 100 to 1000 | CCCn1nccc1C(=O)N[C@H](c1cn2nc(CC3C[C@@H](C(F)(F)F)CNC3=O)ccc2n1)C1CCC(F)(F)CC1 (stereo partly drawn) [Compound 128, N-((1S)-(4,4-difluorocyclohexyl)(6-(((5R)-2-oxo-5-(trifluoromethyl)piperidin-3-yl)methyl)imidazo[1,2-b]pyridazin-2-yl)methyl)-1-propyl-1H-pyrazole-5-carboxamide] |
| 100 to 1000 | CCn1nccc1C(=O)N[C@H](c1cn2ncc(CC3C[C@@H](C(F)(F)F)NC3=O)cc2n1)C(C1CC1)C1CC1 (single isomer, unassigned) [Compound 202] |
| 100 to 1000 | Cc1nocc1C(=O)N[C@H](c1cn2nc(CC3C[C@@H](C(F)(F)F)CNC3=O)ccc2n1)C1CCC(F)(F)CC1 (stereo partly drawn) [Compound 118, N-((1S)-(4,4-difluorocyclohexyl)(6-(((5R)-2-oxo-5-(trifluoromethyl)piperidin-3-yl)methyl)imidazo[1,2-b]pyridazin-2-yl)methyl)-3-methylisoxazole-4-carboxamide] |
| 100 to 1000 | O=C(N[C@H](c1cn2nc(CC3C[C@@H](C(F)(F)F)CNC3=O)ccc2n1)C1CCC(F)(F)CC1)c1conc1C(F)(F)C1CC1 (stereo partly drawn) [Compound 125, 3-(cyclopropyldifluoromethyl)-N-((1S)-(4,4-difluorocyclohexyl)(6-(((5R)-2-oxo-5-(trifluoromethyl)piperidin-3-yl)methyl)imidazo[1,2-b]pyridazin-2-yl)methyl)isoxazole-4-carboxamide] |

Reference: patent publication US20250346602A1, “LACTAM SUBSTITUTED IMIDAZOPYRIDAZINE IL-17A MODULATORS AND USES THEREOF” (DICE ALPHA, INC., priority 2022, published 2025)
